Earlier results as cited in US20020048798A1, “Novel antioxidants” (priority 2000, published 2002).

Conditions: factor relative to the racemate of α-lipoic acid

For `O=C(O)CCCC[C@@H]1CCSS1` [R-α-lipoic acid], the “anti-inflammatory activity, stronger by a factor than that of the racemate” value is given as 10.
